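In this assay, cells in 96-well plates receive the compound at five concentrations for 48 hours. Endpoints are linearly interpolated between the surrounding concentrations. The concentration for 50% growth inhibition is given as GI50.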 The source made the active and inactive calls. Rule as the data show it: active = GI50 up to about 1.1 µM and inactive = higher.
Experiments:
Test in all cases: inhibition of tumour cell growth, NCI panel, 48 h
NCI-H23 = test system: NCI-H23
HCT-15 = test system: HCT-15
MDA-MB-435 = test system: MDA-MB-435
OVCAR-4 = test system: OVCAR-4
BT-549 = test system: BT-549
OVCAR-8 = test system: OVCAR-8
NCI/ADR-RES = test system: NCI/ADR-RES
SK-MEL-5 = test system: SK-MEL-5
DU-145 = test system: DU-145
Malme-3M = test system: Malme-3M
CAKI-1 = test system: CAKI-1
HOP-92 = test system: HOP-92
HL-60 = test system: HL-60
NCI-H460 = test system: NCI-H460
RPMI-8226 = test system: RPMI-8226
SW-620 = test system: SW-620
NCI-H522 = test system: NCI-H522
KM12 = test system: KM12
SF-295 = test system: SF-295
LOX IMVI = test system: LOX IMVI
COLO 205 = test system: COLO 205
OVCAR-3 = test system: OVCAR-3
MCF7 = test system: MCF7
IGROV-1 = test system: IGROV-1
SK-MEL-28 = test system: SK-MEL-28
SF-539 = test system: SF-539
UACC-257 = test system: UACC-257
Hs-578T = test system: Hs-578T
RXF 393 = test system: RXF 393
K562 = test system: K562
U-251 = test system: U-251
MDA-MB-231 = test system: MDA-MB-231
TK-10 = test system: TK-10
OVCAR-5 = test system: OVCAR-5
PC-3 = test system: PC-3
HCC 2998 = test system: HCC 2998
HOP-62 = test system: HOP-62
SNB-75 = test system: SNB-75
A498 = test system: A498
ACHN = test system: ACHN
SK-MEL-2 = test system: SK-MEL-2
CCRF-CEM = test system: CCRF-CEM
NCI-H226 = test system: NCI-H226
UACC-62 = test system: UACC-62
SK-OV-3 = test system: SK-OV-3
EKVX = test system: EKVX
MOLT-4 = test system: MOLT-4
SR = test system: SR
HT-29 = test system: HT-29
786-0 = test system: 786-0
T47D = test system: T47D
M14 = test system: M14
HCT-116 = test system: HCT-116
SF-268 = test system: SF-268
A549 = test system: A549
UO-31 = test system: UO-31
SNB-19 = test system: SNB-19
SN12C = test system: SN12C

Measured: GI50

N=c1c2c(=S)n(-c3ccccc3)c(=S)n(-c3ccccc3)c2nc(SCCCN2CCN(c3cccc(Cl)c3)CC2)n1-c1ccccc1
inactive: NCI-H23 > 100 µM | MDA-MB-435 73.8 µM | OVCAR-4 > 100 µM | BT-549 > 100 µM | OVCAR-8 > 100 µM | NCI/ADR-RES > 100 µM | SK-MEL-5 92.7 µM | DU-145 52.8 µM | Malme-3M > 100 µM | CAKI-1 84.3 µM | HOP-92 42.3 µM | HL-60 > 100 µM | NCI-H460 > 100 µM | RPMI-8226 > 100 µM | SW-620 > 100 µM | NCI-H522 > 100 µM | KM12 > 100 µM | SF-295 45.4 µM | LOX IMVI 26.5 µM | COLO 205 > 100 µM | OVCAR-3 > 100 µM | MCF7 53.2 µM | IGROV-1 97.7 µM | SK-MEL-28 > 100 µM | SF-539 > 100 µM | UACC-257 > 100 µM | Hs-578T > 100 µM | RXF 393 > 100 µM | K562 > 100 µM | U-251 > 100 µM | MDA-MB-231 22.8 µM | TK-10 37.5 µM | OVCAR-5 26.4 µM | PC-3 43.9 µM | HCC 2998 > 100 µM | HOP-62 44.7 µM | SNB-75 78.5 µM | A498 50.7 µM | ACHN > 100 µM | SK-MEL-2 62.8 µM | CCRF-CEM > 100 µM | NCI-H226 98.6 µM | UACC-62 49.2 µM | SK-OV-3 > 100 µM | EKVX > 100 µM | MOLT-4 > 100 µM | SR > 100 µM
59.2 µM: HCT-15

CCN1CCC(C)OP1(=O)Cc1ccccc1 (stereo not given)
> 100 µM: HCT-15
inactive: NCI-H23 > 100 µM | MDA-MB-435 > 100 µM | OVCAR-4 > 100 µM | BT-549 > 100 µM | OVCAR-8 > 100 µM | NCI/ADR-RES > 100 µM | SK-MEL-5 > 100 µM | DU-145 > 100 µM | Malme-3M > 100 µM | HT-29 > 100 µM | CAKI-1 > 100 µM | NCI-H460 > 100 µM | RPMI-8226 > 100 µM | 786-0 > 100 µM | SW-620 > 100 µM | KM12 > 100 µM | SF-295 > 100 µM | LOX IMVI > 100 µM | COLO 205 > 100 µM | OVCAR-3 46.5 µM | MCF7 > 100 µM | T47D > 100 µM | IGROV-1 > 100 µM | SF-539 > 100 µM | UACC-257 > 100 µM | K562 > 100 µM | U-251 > 100 µM | MDA-MB-231 > 100 µM | TK-10 > 100 µM | OVCAR-5 > 100 µM | PC-3 > 100 µM | HCC 2998 > 100 µM | HOP-62 > 100 µM | M14 > 100 µM | HCT-116 > 100 µM | ACHN > 100 µM | SK-MEL-2 > 100 µM | SF-268 > 100 µM | A549 > 100 µM | UO-31 > 100 µM | NCI-H226 > 100 µM | UACC-62 > 100 µM | SK-OV-3 > 100 µM | EKVX > 100 µM | SNB-19 > 100 µM | SR > 100 µM

COC1CCN(N(C)C)O1 (stereo not given)
inactive: NCI-H23 > 100 µM | MDA-MB-435 > 100 µM | OVCAR-4 > 100 µM | BT-549 > 100 µM | OVCAR-8 > 100 µM | NCI/ADR-RES > 100 µM | SK-MEL-5 > 100 µM | DU-145 > 100 µM | Malme-3M > 100 µM | HT-29 > 100 µM | CAKI-1 > 100 µM | HL-60 > 100 µM | NCI-H460 > 100 µM | RPMI-8226 > 100 µM | 786-0 > 100 µM | SN12C > 100 µM | SW-620 > 100 µM | NCI-H522 > 100 µM | KM12 > 100 µM | SF-295 > 100 µM | LOX IMVI > 100 µM | COLO 205 > 100 µM | OVCAR-3 > 100 µM | MCF7 > 100 µM | T47D > 100 µM | IGROV-1 > 100 µM | SK-MEL-28 > 100 µM | UACC-257 > 100 µM | Hs-578T > 100 µM | RXF 393 > 100 µM | K562 > 100 µM | U-251 > 100 µM | MDA-MB-231 > 100 µM | TK-10 > 100 µM | OVCAR-5 > 100 µM | PC-3 > 100 µM | HCC 2998 > 100 µM | HOP-62 > 100 µM | SNB-75 > 100 µM | A498 > 100 µM | M14 > 100 µM | HCT-116 > 100 µM | ACHN > 100 µM | SK-MEL-2 > 100 µM | SF-268 > 100 µM | A549 > 100 µM | CCRF-CEM > 100 µM | UO-31 > 100 µM | NCI-H226 > 100 µM | UACC-62 > 100 µM | EKVX > 100 µM | SNB-19 > 100 µM | MOLT-4 > 100 µM | SR > 100 µM
> 100 µM: HCT-15
